We go through eleven molecules from US11058690B2, “Use of cytochrome bc1 complex inhibitor in preparing pharmaceutical composition” (BEIJING WEILANZHIYUAN MEDICAL TECHNOLOGY CO., LTD., priority 2017, dated 2021).

Usually IC50 stands for the concentration that gives 50% inhibition.

The subject of assay [1] is rat uterine smooth muscle. In words: contraction of isolated rat uterine smooth muscle strips induced by PGF2α. The following applies: for IC50: read-out: IC50, inhibition of uterine smooth muscle contraction; for inhibitory effect on PGF2α-induced contraction: amplitude and frequency. It counts as cell-based. As to the method:
Female healthy Wistar rats weighing 230-270 g were used in the experiment. At 2 days before the experiment, Diethylstilbestrol suspension was injected intraperitoneally once at 0.1 mg/kg, resulting in artificial estrus. The rats were sacrificed by cervical dislocation, and the uterus was removed by laparotomy and immediately placed in a glass plate containing Tyrode's solution. Connective and adipose tissues attached to the uterine wall were carefully peeled off, the uterus was cut open along the mesangial line and laid flat on the bottom of the glass plate, then one side of the uterus was divided into left and right uterine muscle strips by using a surgical blade along the uterine contraction band running along smooth muscle, the two ends of the uterine muscle strip on one side were ligated with wires respectively, and then transferred into a nutrient tube which was aerated with oxygen and filled with 5 ml of Tyrode's solution and preheated to 37.2±0.5° C., with a lower end fixed and an upper end connected with a tension sensor. The materials stood for 20-30 minutes, liquid was changed 2-3 times, then the uterus was given a load of 1 g and kept for 30-60 minutes until the uterus had regular contraction waves, 40 mM KCL solution was provided for 10 minutes, and the function of the uterine muscle strips was evaluated. Then the muscle strips were relaxed and washed 2-3 times with Tyrode's solution, then let stand for 30 minutes; after standing, the uterine muscle strips were given a load of 1 g and kept for 30-60 minutes, and the administration and the observation were carried out after the uterine muscle strips contracted stably (i.e. regular contraction waveforms appear in a microcomputer display screen), the changes of relevant data such as contraction tension, amplitude and area under the contraction curve of the uterine smooth muscle strips were recorded, and the drug given was evaluated. During the experiment, the working temperature of the Tyrode's solution was kept at 37.2±0.5° C., and oxygen was continuously aerated into the nutrient tube with 1-2 bubbles per second. A cumulative dosing method was adopted, and 5 μl was administered each time, from low concentration to high concentration. A final drug concentration refers to the concentration of the drug dissolved in 5 ml Tyrode's solution in a […] tube.
Fluacrypyrim (FAPM), the first strobilurin acaricide developed by BASF SE and Nippon Soda Co., Ltd., is a Qo site inhibitor of the mitochondrial cytochrome bc1 complex. […] The area under the smooth muscle contraction curve was calculated before drug intervention and 10 minutes after different doses of drug intervention respectively. A drug dose-effect curve was plotted by taking the area under the smooth muscle contraction curve caused by PGF2α as 100%, to calculate the median effective dose (IC50 value) of the drug for inhibiting uterine smooth muscle contraction.

Another assay deals with Kunming male mice. In words: acetic acid writhing test on mice. It counts as in vivo, mouse. The note with it: for curative effect compared with indomethacin: 100 mg/Kg versus indomethacin 50 mg/Kg; for writhe starting time (reaction latency) compared with control group: FAPM and trifloxystrobin intraperitoneal, azoxystrobin intragastric. On the technique in general: In writhing tests, fewer writhes than in controls are read as antinociception.

The subject of assay [2] is Mouse mononuclear macrophage RAW 264.7. In words: nitric oxide production by LPS-stimulated macrophages (Griess assay). The class given is cell-based. The note with it: for Maximum inhibition rate: in %; for IC50: read-out: IC50, NO production.
Assay [3] concerns Kunming female mice. In words: oxytocin-induced dysmenorrhea model in mice (diethylstilbestrol sensitization). The note with it: for Writhe starting time / Number of writhing times: Table 9; for Number of writhing times: within 30 min. It counts as in vivo, mouse. As to the method: (§1) A mouse dysmenorrhea model was established with reference to Yang L., Cao Z., Yu B. & Chai C. An in vivo mouse model of primary dysmenorrhea. Exp Anim. 2015, August 64, 295-303. Adult healthy Kunming female mice were randomly grouped, 10 mice in each group. Experimental mice were intragastrically given diethylstilbestrol 0.2 mg daily for 12 days. Different kinds and dosages of the inhibitors of the cytochrome bc1 complex were given intraperitoneally or intragastrically 30 min after the last administration. Indometacin (50 mg/kg) was injected intraperitoneally as positive control, PGF2α (1.3 mg/kg) or oxytocin (20 U/kg) was injected intraperitoneally 1 h later, and the writhe starting time (reaction latency) and the number of writhing times within 30 min were observed and recorded.

In assay [4] the test system is Kunming female mice. In words: PGF2α-induced dysmenorrhea model in mice (diethylstilbestrol sensitization). It counts as in vivo, mouse. The following applies: for Writhe starting time / Number of writhing times: Table 8; for Number of writhing times: within 30 min. As for the experimental part: as §1
The mark [5] stands for this setting: PGF2α (450 nM), area under the contraction curve 10 minutes after drug.
[6] abbreviates: Table 6, 200 mg/Kg intragastric.
Where [7] appears, read: Table 6, 200 mg/Kg intragastric, within 30 min.
The mark [8] stands for this setting: Rattus norvegicus, 10 min, PGF2α (450 nM), area under the contraction curve 10 minutes after drug.
Where [9] appears, read: Mus musculus, RAW264.7, LPS 1 μg/mL, 24 h.
Setting [10] is: 50 mg/Kg versus indomethacin 50 mg/Kg.

Structures are written as SMILES. Read-outs that look alike come from different tables or passages of the source.

On to `CNC(=O)/C(=N/OC)c1ccccc1COc1cc(C)ccc1C` [Dimoxystrobin, dimoxystrobin], for which the IC50 in assay [1] (setting [5]) worked out at 1650 ± 120 nM. Further, the figures for the “Writhe starting time” value in the assay with Kunming male mice (200 mg/Kg intragastric) and with Kunming male mice (setting [6]) were “not prolonged” and 3.3 ± 0.5 min, respectively. Besides, the “effect on number of writhing times” value with Kunming male mice (200 mg/Kg intragastric) is “obviously inhibited”. For the same molecule, the “Number of writhing times” value in the assay on Kunming male mice (setting [7]) worked out at 31.5 ± 4.7.
Taken in the same sequence, the figures for `CO/C=C(/C(=O)OC)c1ccccc1COc1cccc(C(F)(F)F)n1` [Picoxystrobin, picoxystrobin] were 1200 ± 20 nM, “not prolonged”, 3.3 ± 1.0 min, “obviously inhibited” and 29.3 ± 4.7.
Consider `CO/N=C(/C(=O)OC)c1ccccc1COc1ccccc1C` [kresoxim-methyl], for which the values for the IC50 in assay [1] (setting [8]) and in assay [2] (setting [9]) were 4080 ± 290 nM and 2770 ± 690 nM, respectively. In addition, the “Writhe starting time” value in the assay with Kunming male mice (200 mg/Kg intragastric) is “not prolonged”; in the assay on Kunming male mice (setting [6]) it was 3.4 ± 1.0 min. For the same molecule, the “effect on number of writhing times” value with Kunming male mice (200 mg/Kg intragastric) is on record as “obviously inhibited”. Besides, the “Number of writhing times” value with Kunming male mice (setting [7]) came to 33.0 ± 2.9. Besides, the Maximum inhibition rate in assay [2] (LPS 1 μg/mL, 24 h) is given as 88.7 ± 5.6%.
`O=C1C(O)=C([C@H]2CC[C@H](c3ccc(Cl)cc3)CC2)C(=O)c2ccccc21` [atovaquone, reference compound]: in assay [1] (setting [8]), the IC50 came out at 8440 ± 700 nM.
For `COC(=O)N(OC)c1ccccc1COc1ccn(-c2ccc(Cl)cc2)n1` [Pyraclostrobin, pyraclostrobin], in assay [1] (setting [8]), the 50% inhibitory concentration (IC50) was found to be 1050 ± 10 nM.
Turning to `CO/N=C(/C1=NOCCO1)c1ccccc1Oc1ncnc(Oc2ccccc2Cl)c1F` [Fluoxastrobin, fluoxastrobin], the IC50 in assay [1] (setting [8]) was determined as 2630 ± 300 nM.
With `CON=C(C(=O)OC)c1ccccc1CON=C(C)c1cccc(C(F)(F)F)c1` [trifloxystrobin], the IC50 stood at 1770 ± 50 nM in assay [1] (setting [8]) and 640 ± 210 nM in assay [2] (setting [9]). The “curative effect compared with indomethacin” value in the assay on Kunming male mice was “equivalent to indomethacin at 50 mg/Kg”. In the assay on Kunming male mice, the “writhe starting time (reaction latency) compared with control group” value is reported as “significantly prolonged”. The “Number of writhing times” value in the assay with Kunming male mice (Table 4, 50 mg/Kg intraperitoneal, within 30 min) came out at 22.3 ± 1.2; with Kunming male mice (ip, 100 mg/kg, 0.5 h) it was 14.0 ± 1.7; with Kunming male mice (ip, 200 mg/kg, 0.5 h), 4.0 ± 2.3. Also, the Writhe starting time in the assay with Kunming male mice (ip, 50 mg/kg) came to 3.3 ± 0.5 min; in the assay on Kunming male mice (ip, 100 mg/kg) it was 4.3 ± 1.6 min; in the assay with Kunming male mice (ip, 200 mg/kg), 8.5 ± 2.4 min. Also, the Maximum inhibition rate in assay [2] (LPS 1 μg/mL, 24 h) is given as 90.7 ± 2.9%.
Consider `CO/C=C(/C(=O)OC)c1ccccc1Oc1cc(Oc2ccccc2C#N)ncn1` [azoxystrobin], for which the “curative effect compared with indomethacin” value was “equivalent to 50 mg/Kg of indomethacin” in the assay with Kunming female mice [3] (setting [10]), “equivalent to indomethacin at 50 mg/Kg” with Kunming female mice [4] (setting [10]) and “equivalent to indomethacin at 50 mg/Kg” with Kunming male mice. Further, the Writhe starting time in the assay with Kunming female mice [3] (50 mg/Kg intragastric) turned out to be 3.3 ± 1.5; in the assay on Kunming female mice [3] (100 mg/Kg intragastric) it was 3.9 ± 1.5; in the assay on Kunming female mice [3] (200 mg/Kg intragastric), 3.3 ± 1.3; in the assay on Kunming female mice [4] (50 mg/Kg intragastric), 2.1 ± 1.0 min; in the assay on Kunming female mice [4] (100 mg/Kg intragastric) it was 2.0 ± 1.1 min; in the assay with Kunming female mice [4] (200 mg/Kg intragastric) it was 2.2 ± 0.8 min. Also, the Writhe starting time with Kunming male mice (Table 5, 50 mg/Kg intragastric) was determined as 3.2 ± 1.1 min; in the assay with Kunming male mice (Table 5, 100 mg/Kg intragastric), 3.4 ± 1.8 min; in the assay with Kunming male mice (Table 5, 200 mg/Kg intragastric), 3.7 ± 1.5 min; in the assay with Kunming male mice (Table 5, 400 mg/Kg intragastric) it was 3.4 ± 1.2 min. Moreover, the “Number of writhing times” value in the assay on Kunming female mice [3] (50 mg/Kg intragastric) is recorded as 24.2 ± 4.1; with Kunming female mice [3] (100 mg/Kg intragastric) it was 14.2 ± 2.2; in the assay on Kunming female mice [3] (200 mg/Kg intragastric), 7.6 ± 1.9; in the assay on Kunming female mice [4] (50 mg/Kg intragastric), 17.7 ± 1.9; in the assay on Kunming female mice [4] (100 mg/Kg intragastric) it was 12.8 ± 2.4; in the assay on Kunming female mice [4] (200 mg/Kg intragastric), 10.3 ± 1.3. Besides, the “Number of writhing times” value with Kunming male mice (Table 5, 50 mg/Kg intragastric, within 30 min) was 31.9 ± 3.1; in the assay on Kunming male mice (Table 5, 100 mg/Kg intragastric, within 30 min), 24.9 ± 4.6; in the assay with Kunming male mice (Table 5, 200 mg/Kg intragastric, within 30 min) it was 21.6 ± 3.5; in the assay with Kunming male mice (Table 5, 400 mg/Kg intragastric, within 30 min), 12.4 ± 4.2. The “effect on number of writhing times” value is “in a dose-dependent manner” in the assay with Kunming female mice [3] (intragastric 50, 100 and 200 mg/Kg); “in a dose-dependent manner” with Kunming female mice [4] (FAPM intraperitoneal, azoxystrobin intragastric, 50, 100 and 200 mg/Kg one hour before). Further, the IC50 stood at 1700 ± 120 nM in assay [1] (setting [5]) and 1890 ± 350 nM in assay [2] (LPS 1 μg/mL, 24 h). The “writhe starting time (reaction latency) compared with control group” value in the assay with Kunming male mice is “not significantly prolonged”. Besides, the Maximum inhibition rate in assay [2] (LPS 1 μg/mL, 24 h) is 86.7 ± 4.3%.
Consider `C/C=C(C)/C=C/C=C/[C@H](OC)[C@@H](C)[C@@H](OC)[C@@H](C)CCc1oc2c(O)c(OC)cc(OC)c2c(=O)c1C` [Stigmatellin, reference compound], for which the “inhibitory effect on PGF2α-induced contraction” value in assay [1] (PGF2α (450 nM)) is given as “strongest inhibitory effect”. Besides, the “IC50 values (level in words)” value in assay [1] (PGF2α-induced) is “nanomolar level”. The IC50 stood at 89.9 nM in assay [1] (Rattus norvegicus, PGF2α-induced) and 6.24 ± 1.15 nM in assay [2] (Mus musculus, RAW264.7, 24 h). The same molecule yielded a Maximum inhibition rate in assay [2] (LPS 1 μg/mL, 24 h) of 88.3±3.9%.
On to `CO/C(=C/C(N)=O)[C@H](C)[C@H](/C=C/c1csc(-c2csc([C@@H](C)/C=C/C=C/C(C)C)n2)n1)OC` [Myxothiazol, myxothiazol, reference compound], for which the “inhibitory effect on PGF2α-induced contraction” value in assay [1] (PGF2α (450 nM)) was “strongest inhibitory effect”. Also, in assay [1] (PGF2α-induced), the “IC50 values (level in words)” value is given as “nanomolar level” and the IC50 came to 215 nM. Further, in assay [2] (LPS 1 μg/mL, 24 h), the Maximum inhibition rate turned out to be 95% and the IC50 worked out at 2.8 nM.
For `CC(C)c1c(C(=O)Nc2ccccc2)c(-c2ccccc2)c(-c2ccc(F)cc2)n1CC[C@@H](O)C[C@@H](O)CC(=O)O` [atorvastatin, reference compound], in assay [1] (setting [8]), the IC50 stood at 8440 ± 700 nM.
